In US12636238B2, “Hypochlorous acid-based eyelid cleansers” (OCuSOFT, Inc., priority 2023, dated 2026):
Read-outs that look alike come from different tables or passages of the source.

Experiment: comparative stability of hypochlorous acid in the presence of various ingredients (free available chlorine, FAC)
Assay type: physicochemical
Excerpt: Free available chlorine or free active chlorine (FAC) refers to the amount of chlorine that is available to disinfect or kill microorganisms. Importantly, FAC covers many forms of chlorine, such as hypochlorous acid and hypohalite anion, in addition to freely available chlorine. Measurement and quantification of FAC is typically accomplished by a titration or colorimetric method. In certain embodiments, the eyelid cleanser composition contains 10 to 300 ppm of free available chlorine (FAC).
Table 1 illustrates the comparative stability of hypochlorous acid in the presence of various ingredients. The inventors determined that only specific ingredients disclosed in the disclosed embodiments are compatible with hypochlorous acid. For example, after 7 days in solution with sodium laureth sulfate, the FAC concentration decreased by about 4% per day.

[1] = FAC, component 0.01 M, time 2 days
[2] = component tested at 0.01 M in hypochlorous acid solution, start
[3] = component tested at 0.50%, start
[4] = component tested at 0.5%^, start

In the case of `CC(=O)O` [Acetic Acid], the “% change/day” value [1] is reported as 2%, the “FAC End” value (component 0.01 M, time 2 days) is reported as 384.6 ppm and the “FAC Start” value [2] is reported as 367.5 ppm.
With `O=C(O)CC(O)(CC(=O)O)C(=O)O` [Citric Acid] the “% change/day” value [1] was −49%, the “FAC End” value (component 0.01 M, time 2 days) was 5.1 ppm and the “FAC Start” value [2] was 188.9 ppm.
For `CC(C)(CO)C(O)C(=O)NCCCO` (centres unmarked) [DI-Panthenol], the “% change/day” value (FAC, component 1%, time 3 days) was −26%, the “FAC End” value (component 1%, time 3 days) was 23 ppm and the “FAC Start” value (component tested at 1%, start) was 101 ppm.
With `CCCCCCCCCCO[C@@H]1O[C@H](CO)[C@@H](O)[C@H](O)[C@H]1O` [Decyl Glucoside] the “% change/day” value (FAC, component 1%, time 3 days) was −100%, the “FAC End” value (component 1%, time 3 days) was 0 ppm and the FAC Start (component tested at 1%, start) was 3 ppm. The “degradation of hypochlorous acid (observation)” value (in the presence of the component) was “immediate degradation”.
For `CCCCCCCCOC(=O)CC(C(=O)OCCCCCCCC)S(=O)(=O)O.[Na]` (centres unmarked) [Dioctyl Sulfosuccinate Sodium], the “% change/day” value (FAC, component 0.50%, time 10 days) was −6%, the “% change/day” value (FAC, component 0.5%^, time 38 days) was −1% and the “FAC End” value (component 0.50%, time 10 days) was 113 ppm. For the same compound, the “FAC End” value (component 0.5%^, time 38 days) was 194 ppm, the “FAC Start” value [3] was 289 ppm and the “FAC Start” value [4] was 289 ppm.
With `OCC(O)CO` [Glycerin] the “% change/day” value (FAC, component 1%, time 3 days) was −17%, the “FAC End” value (component 1%, time 3 days) was 50 ppm and the “FAC Start” value (component tested at 1%, start) was 102 ppm.
In the case of `CC(O)CO` (centres unmarked) [Propylene Glycol], the “% change/day” value (FAC, component 1%, time 3 days) is reported as −11%, the “FAC End” value (component 1%, time 3 days) is reported as 67 ppm and the “FAC Start” value (component tested at 1%, start) is reported as 99 ppm.
With `CC(=O)[O-].[Na+]` [Sodium Acetate] the “% change/day” value was 2%, the “FAC End” value was 377 ppm and the “FAC Start” value was 362.1 ppm.
In the case of `O=C([O-])CC(O)(CC(=O)[O-])C(=O)[O-].[Na+].[Na+].[Na+]` [Sodium Citrate], the “% change/day” value [1] is reported as −49%, the “FAC End” value (component 0.01 M, time 2 days) is reported as 2.6 ppm and the “FAC Start” value [2] is reported as 125.1 ppm.
With `O=P([O-])([O-])O.[Na+].[Na+]` [Sodium Dibasic Phosphate] the “% change/day” value [1] was 16%, the “FAC End” value (component 0.01 M, time 2 days) was 331.1 ppm and the “FAC Start” value [2] was 250 ppm.
In the case of `CCCCCCCCCCCCOS(=O)(=O)[O-].[Na+]` [Sodium Lauryl Sulfate], the “% change/day” value (FAC, component 0.5%^, time 238 days) is reported as 0%, the “FAC End” value (component 0.5%^, time 238 days) is reported as 11 ppm and the “FAC Start” value [4] is reported as 267 ppm.
In the case of `O=P([O-])(O)O.[Na+]` [Sodium Monobasic Phosphate], the “% change/day” value [1] is reported as 2%, the “FAC End” value (component 0.01 M, time 2 days) is reported as 374.4 ppm and the “FAC Start” value [2] is reported as 361.4 ppm.
With Polysorbate 20 the “% change/day” value (FAC, component 0.50%, time 2 days) was −16%, the “FAC End” value (component 0.50%, time 2 days) was 264.9 ppm and the “FAC Start” value [3] was 391 ppm.
In the case of Sodium Laureth Sulfate, the “% change/day” value (FAC, component 0.5%^, time 7 days) is reported as −4%, the FAC concentration decrease (after 7 days in solution) is reported as “about 4 % per day” and the “FAC End” value (component 0.5%^, time 7 days) is reported as 208 ppm. The “FAC Start” value [4] was 287 ppm.
